Molecules are shown by their SMILES. Where a name gives a salt, the structure may show the parent alone.

The target of this experiment is T1, SOS1 (Homo sapiens, UniProt Q07889).
T1 sequence (Q07889 1-1333): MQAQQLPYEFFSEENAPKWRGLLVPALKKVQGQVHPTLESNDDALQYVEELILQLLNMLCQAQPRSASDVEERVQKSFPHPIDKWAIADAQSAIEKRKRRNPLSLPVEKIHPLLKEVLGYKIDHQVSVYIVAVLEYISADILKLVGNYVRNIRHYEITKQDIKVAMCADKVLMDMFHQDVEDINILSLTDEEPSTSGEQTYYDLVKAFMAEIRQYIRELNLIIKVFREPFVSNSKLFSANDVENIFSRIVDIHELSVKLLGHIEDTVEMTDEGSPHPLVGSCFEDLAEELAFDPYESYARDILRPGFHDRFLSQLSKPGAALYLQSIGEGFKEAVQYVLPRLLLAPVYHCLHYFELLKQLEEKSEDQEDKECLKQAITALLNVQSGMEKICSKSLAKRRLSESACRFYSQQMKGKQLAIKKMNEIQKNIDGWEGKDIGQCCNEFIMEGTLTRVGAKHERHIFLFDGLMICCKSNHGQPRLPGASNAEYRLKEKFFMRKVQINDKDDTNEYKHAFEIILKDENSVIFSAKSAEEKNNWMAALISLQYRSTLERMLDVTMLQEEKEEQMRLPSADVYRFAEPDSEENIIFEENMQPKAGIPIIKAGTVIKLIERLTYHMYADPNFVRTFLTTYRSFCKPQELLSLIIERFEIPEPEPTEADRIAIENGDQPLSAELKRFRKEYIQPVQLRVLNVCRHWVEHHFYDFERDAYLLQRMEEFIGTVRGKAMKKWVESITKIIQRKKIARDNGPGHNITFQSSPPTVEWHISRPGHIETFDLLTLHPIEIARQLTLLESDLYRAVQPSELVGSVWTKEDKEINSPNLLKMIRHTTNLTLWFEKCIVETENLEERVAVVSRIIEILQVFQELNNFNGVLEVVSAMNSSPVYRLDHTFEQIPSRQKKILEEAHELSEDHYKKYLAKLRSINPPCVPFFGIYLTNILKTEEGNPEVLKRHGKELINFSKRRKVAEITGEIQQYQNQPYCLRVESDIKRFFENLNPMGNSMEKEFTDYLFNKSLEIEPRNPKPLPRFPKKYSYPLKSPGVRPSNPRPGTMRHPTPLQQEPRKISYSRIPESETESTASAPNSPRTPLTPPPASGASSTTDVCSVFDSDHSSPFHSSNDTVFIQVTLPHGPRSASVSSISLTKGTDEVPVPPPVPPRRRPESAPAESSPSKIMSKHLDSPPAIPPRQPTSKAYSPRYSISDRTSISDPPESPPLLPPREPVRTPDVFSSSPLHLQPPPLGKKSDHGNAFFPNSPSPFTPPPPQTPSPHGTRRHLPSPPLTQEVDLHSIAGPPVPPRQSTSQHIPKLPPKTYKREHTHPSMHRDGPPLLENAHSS
In words: biochemical.
`C[C@@H](Nc1nnc(N2CC3CCC(C2)O3)c2cc(=O)n(C3(C)CC3)cc12)c1cccc(C(F)F)c1F` [Example 198, 1-(8-oxa-3-azabicyclo[3.2.1]octan-3-yl)-4-(((R)-1-(3-(difluoromethyl)-2-fluorophenyl)ethyl)amino)-6-(1-methylcyclopropyl) pyrido[3,4-d]pyridazin-7(6H)-one] showed an IC50 of 13.6 nM. Under `C[C@@H](Nc1nnc(N2CCC3(CCCO3)CC2)c2cc(=O)n(C3(C)CC3)cc12)c1cccc(C(F)F)c1F` [Example 199, (R)-4-((1-(3-(difluoromethyl)-2-fluorophenyl)ethyl)amino)-6-(1-methylcyclopropyl)-1-(1-oxa-8-azaspiro[4.5]decan-8-yl)pyrido[3,4-d]pyridazin-7(6H)-one] stands 12.5 nM; under `C[C@@H](Nc1nnc(N2CCC3(CCOCC3)C2)c2cc(=O)n(C3(C)CC3)cc12)c1cccc(C(F)F)c1F` [Example 200, (R)-4-((1-(3-(difluoromethyl)-2-fluorophenyl)ethyl)amino)-6-(1-methylcyclopropyl)-1-(8-oxa-2-azaspiro[4.5]decan-2-yl)pyrido[3,4-d]pyridazin-7(6H)-one], 4.2 nM.

The compound `C[C@@H](Nc1nnc(N2CC3CC2CO3)c2cc(=O)n(C3(C)CC3)cc12)c1cccc(C(F)F)c1F` (stereo partly drawn) [Example 201, 1-(2-oxa-5-azabicyclo[2.2.1]heptan-5-yl)-4-(((R)-1-(3-(difluoromethyl)-2-fluorophenyl)ethyl)amino)-6-(1-methylcyclopropyl) pyrido[3,4-d]pyridazin-7(6H)-one] gave an IC50 of 5.3 nM. Under `C[C@@H](Nc1nnc(N2C3CCC2COC3)c2cc(=O)n(C3(C)CC3)cc12)c1cccc(C(F)F)c1F` [Example 202, 1-(3-oxa-8-azabicyclo[3.2.1]octan-8-yl)-4-(((R)-1-(3-(difluoromethyl)-2-fluorophenyl)ethyl)amino)-6-(1-methylcyclopropyl) pyrido[3,4-d]pyridazin-7(6H)-one] stands 12.4 nM. Under `C[C@@H](Nc1nnc(N2CCN3CCCCC3C2)c2cc(=O)n(C3(C)CC3)cc12)c1cccc(C(F)F)c1F` (stereo partly drawn) [Example 203, 4-(((R)-1-(3-(difluoromethyl)-2-fluorophenyl)ethyl)amino)-6-(1-methylcyclopropyl)-1-(octahydro-2H-pyrido[1,2-a]pyrazin-2-yl)pyrido[3,4-d]pyridazin-7(6H)-one] stands 3.8 nM. Under `C[C@@H](Nc1nnc(N2CCC3(CC2)CNC(=O)C3)c2cc(=O)n(C3(C)CC3)cc12)c1cccc(C(F)F)c1F` [Example 204, (R)-4-((1-(3-(difluoromethyl)-2-fluorophenyl)ethyl)amino)-6-(1-methylcyclopropyl)-1-(3-oxo-2,8-diazaspiro[4.5]decan-8-yl)pyrido[3,4-d]pyridazin-7(6H)-one] stands 8 nM; under `C[C@@H](Nc1nnc(N2CC3COCC3C2)c2cc(=O)n(C3(C)CC3)cc12)c1cccc(C(F)F)c1F` (stereo partly drawn) [Example 205, 4-(((R)-1-(3-(difluoromethyl)-2-fluorophenyl)ethyl)amino)-6-(1-methylcyclopropyl)-1-(tetrahydro-1H-furo[3,4-c]pyrrol-5(3H)-yl)pyrido[3,4-d]pyridazin-7(6H)-one], 4.1 nM; under `C[C@@H](Nc1nnc(N2CC3CN(C)CC3C2)c2cc(=O)n(C3(C)CC3)cc12)c1cccc(C(F)F)c1F` (stereo partly drawn) [Example 206, 4-(((R)-1-(3-(difluoromethyl)-2-fluorophenyl)ethyl)amino)-6-(1-methylcyclopropyl)-1-(5-methylhexahydropyrrolo[3,4-c]pyrrol-2(1H)-yl)pyrido[3,4-d]pyridazin-7(6H)-one], 4.9 nM. Consider `C[C@@H](Nc1nnc(N2CCC[C@H](CO)C2)c2cc(=O)n(C3(C)CC3)cc12)c1cccc2c1CCC2(F)F` [Example 207, 4-(((R)-1-(1,1-difluoro-2,3-dihydro-1H-inden-4-yl)ethyl)amino)-1-((S)-3-(hydroxymethyl)piperidin-1-yl)-6-(1-methylcyclopropyl) pyrido[3,4-d]pyridazin-7(6H)-one], for which half-maximal inhibition (IC50) required 7.3 nM. In the case of `C[C@@H](Nc1nnc(N2CCN(C)CC2)c2cc(=O)n(C3(C)CC3)cc12)c1cccc2c1CCC2(F)F` [Example 208, (R)-4-((1-(1,1-difluoro-2,3-dihydro-1H-inden-4-yl)ethyl)amino)-6-(1-methylcyclopropyl)-1-(4-methylpiperazin-1-yl)pyrido[3,4-d]pyridazin-7(6H)-one], the IC50 worked out at 4.5 nM. The figure for `Cc1c([C@@H](C)Nc2nnc(N3CCN(C)CC3)c3cc(=O)n(C4(C)CC4)cc23)cccc1S(=O)(=O)C(F)F` [Example 209, (R)-4-((1-(3-((difluoromethyl)sulfonyl)-2-methylphenyl)ethyl)amino)-6-(1-methylcyclopropyl)-1-(4-methylpiperazin-1-yl)pyrido[3,4-d]pyridazin-7(6H)-one] is 4.4 nM; for `Cc1c(C(F)F)cccc1[C@@H](C)Nc1nnc(N2CCN(C)CC2)c2cc(=O)n(C3CC3)cc12` [Example 210, (R)-6-cyclopropyl-4-((1-(3-(difluoromethyl)-2-methylphenyl)ethyl)amino)-1-(4-methylpiperazin-1-yl)pyrido[3,4-d]pyridazin-7(6H)-one] it is 2.7 nM. `Cc1c(C(F)F)cccc1[C@@H](C)Nc1nnc(N2CCN(C(C)C)CC2)c2cc(=O)n(C3CC3)cc12` [Example 211, (R)-6-cyclopropyl-4-((1-(3-(difluoromethyl)-2-methylphenyl)ethyl)amino)-1-(4-isopropylpiperazin-1-yl)pyrido[3,4-d]pyridazin-7(6H)-one] returned an IC50 of 5.2 nM. The figure for `Cc1c(C(F)F)cccc1[C@@H](C)Nc1nnc(N2CCN(C3CC3)CC2)c2cc(=O)n(C3CC3)cc12` [Example 212, (R)-6-cyclopropyl-1-(4-cyclopropylpiperazin-1-yl)-4-((1-(3-(difluoromethyl)-2-methylphenyl)ethyl)amino)pyrido[3,4-d]pyridazin-7(6H)-one] is 11.9 nM; for `Cc1c(C(F)F)cccc1[C@@H](C)Nc1nnc(N2CCN(C)CC2)c2cc(=O)n(C3(C)CC3)cc12` [Example 213, (R)-4-((1-(3-(difluoromethyl)-2-methylphenyl)ethyl)amino)-6-(1-methylcyclopropyl)-1-(4-methylpiperazin-1-yl)pyrido[3,4-d]pyridazin-7(6H)-one formate] it is 6.2 nM; for `C[C@@H](Nc1nnc(N2CCN(C)CC2)c2cc(=O)n(C3(C)CC3)cc12)c1cccc(S(F)(F)(F)(F)F)c1` [Example 214, (R)-6-(1-methylcyclopropyl)-1-(4-methylpiperazin-1-yl)-4-((1-(3-(pentafluoro-λ^6-sulfaneyl)phenyl)ethyl)amino)pyrido[3,4-d]pyridazin-7(6H)-one formate] it is 5 nM.

For `Cc1c(C#N)cccc1[C@@H](C)Nc1nnc(N2CCN(C(C)C)CC2)c2cc(=O)n(C3CC3)cc12` [Example 215, (R)-3-(1-((6-cyclopropyl-1-(4-isopropylpiperazin-1-yl)-7-oxo-6,7-dihydropyrido[3,4-d]pyridazin-4-yl)amino)ethyl)-2-methylbenzonitrile], the IC50 worked out at 8.6 nM. The figure for `C[C@@H](Nc1nnc(N2CCN(C3CC3)CC2)c2cc(=O)n(C3(C)CC3)cc12)c1cccc(C(F)F)c1F` [Example 218, (R)-1-(4-cyclopropylpiperazin-1-yl)-4-((1-(3-(difluoromethyl)-2-fluorophenyl)ethyl)amino)-6-(1-methylcyclopropyl) pyrido[3,4-d]pyridazin-7(6H)-one] is 6 nM. The figure for `C[C@@H](Nc1nnc(N2CCN(C)CC2)c2cc(=O)n(C3CCN(C)CC3)cc12)c1cccc(C(F)F)c1F` [Example 223, (R)-4-((1-(3-(difluoromethyl)-2-fluorophenyl)ethyl)amino)-1-(4-methylpiperazin-1-yl)-6-(1-methylpiperidin-4-yl)pyrido[3,4-d]pyridazin-7(6H)-one] is 5.4 nM; for `CCN1CCN(c2nnc(N[C@H](C)c3cccc(C#N)c3C)c3cn(C4CC4)c(=O)cc23)CC1` [Example 224, (R)-3-(1-((6-cyclopropyl-1-(4-ethylpiperazin-1-yl)-7-oxo-6,7-dihydropyrido[3,4-d]pyridazin-4-yl)amino)ethyl)-2-methylbenzonitrile] it is 8.4 nM.

Source of the values: EP4722213A1, “NITROGEN-CONTAINING FUNCTIONAL GROUP-SUBSTITUTED PYRIDAZINOPYRIDONE DERIVATIVE AND USE THEREOF” (Sichuan Huiyu Pharmaceutical Co., Ltd., priority 2023, dated 2024).
